How the values were obtained:
[1] = test system: mouse model fed with high fat diet; assay: Effect of alleviating fatty liver in mouse model fed with high fat diet; assay type: in vivo; details: 50 mg/kg orally five days a week for 12 weeks
Description: The effect of ginsenoside F2 on alleviating fatty liver was confirmed using a mouse model fed with high fat diet. Eight-week-old male mouse (body weight; 25 g to 28 g) were orally fed with high fat diet and ginsenoside F2 (50 mg/kg) five days a week for a period of 12 weeks. […] From the results, it was confirmed that ginsenoside F2 has the effect of inhibiting fatty liver production in mice even when they were fed with high fat diet.

[2] = test system: inflammatory cytokines (TNF-α, IL-1β, and IL-6); assay: Expression of inflammatory cytokines in mouse fed with high fat diet; assay type: in vivo; details: mouse fed with high fat diet and ginsenoside F2 (FIG. 4)
[3] = test system: mouse fed with high fat diet; assay: Improvement in insulin sensitivity: blood glucose after glucose and insulin administration; assay type: in vivo; details: vs control group (FIG. 3)
Description: An eleven-week-old mouse was administered with glucose and insulin and the blood glucose level was monitored in a time-dependent manner.

[4] = test system: adipogenesis in the liver (SREBP1c, FAS, CB1R, NAPE-PLD); assay: Analysis of liver tissues of high fat diet-fed mice (H&E, Oil-red O staining, triglyceride, protein and gene expression); assay type: in vivo, mouse
Description: Hematoxylin and Eosin (H&E) staining was performed for the observation of the changes in the liver tissues, and the triglycerides in hepatocytes were stained via Oil-red O staining, and the results are shown under ×100 magnification (FIG. 2A). As a result, it was confirmed again that the lipid accumulation in hepatocytes was reduced.

glioblastoma = details: xenograft model in SD rats; Shin J Y et al. 2012; cited from earlier work
[5] = test system: breast cancer stem cells (CSCs); details: inducing apoptosis along with autophagy in breast cancer stem cells; Mai T T et al. 2012; cited from earlier work
hepatic stellate cells = assay: Expression of endocannabinoid synthase in hepatic stellate cells treated with TNF-α; assay type: cell-based; details: hepatic stellate cells after TNF-α; 10 μM, 20 μM, and 30 μM; 24 hours (FIG. 5)
Description: After treating hepatic stellate cells with TNF-α, they were treated with ginsenoside F2 at concentrations of 10 μM, 20 μM, and 30 μM, and cultured for 24 hours. As a result of examining the difference in expression levels in the cultured hepatic stellate cells, it was confirmed that ginsenoside F2 inhibits the expression of DAGLα and DAGLβ, which are enzymes important for the synthesis of 2-AG, a kind of endocannabinoids, and that ginsenoside F2 inhibits the expression of NAPE-PLD and FAAH, which are factors associated with liver damage (FIG. 5).

[6] = liver, high fat diet-fed mice (FIGS. 2C and 2D)

Compound: CC(C)=CCC[C@](C)(O[C@@H]1O[C@H](CO)[C@@H](O)[C@H](O)[C@H]1O)[C@H]1CC[C@]2(C)[C@@H]1[C@H](O)C[C@@H]1[C@@]3(C)CC[C@H](O[C@@H]4O[C@H](CO)[C@@H](O)[C@H](O)[C@H]4O)C(C)(C)[C@@H]3CC[C@]12C [ginsenoside F2]
- size of liver ([1]; vs control group (FIG. 1A)): significant decrease
- weight of liver ([1]; vs control group (FIG. 1B)): significant decrease
- expression of IL-1β [2]: inhibit
- expression of IL-6 [2]: inhibit
- expression of TNF-α [2]: inhibit
- blood glucose level with time [3]: decrease
- lipid accumulation in hepatocytes ([4]; H&E and Oil-red O staining, ×100 magnification (FIG. 2A)): reduced
- triglyceride level in the liver ([4]; high fat diet-fed mice (FIG. 2B)): lowered
- expression of CB1R gene [4, 6]: reduced
- expression of FAS gene [4, 6]: reduced
- expression of NAPE-PLD gene [4, 6]: reduced
- expression of SREBP1c gene [4, 6]: reduced
- protein expression of FAS [4, 6]: reduced
- protein expression of SREBP1c [4, 6]: reduced
- anticancer effect against glioblastoma (glioblastoma): anticancer effect
- anticancer effect in breast cancer [5]: anticancer effect
- expression of DAGLα (hepatic stellate cells): inhibits
- expression of DAGLβ (hepatic stellate cells): inhibits
- expression of FAAH (hepatic stellate cells): inhibits
- expression of NAPE-PLD (hepatic stellate cells): inhibits

— patent publication US20210008088A1, “COMPOSITION FOR PREVENTING OR TREATING NON-ALCOHOLIC LIVER DISEASE OR INSULIN RESISTANCE COMPRISING GINSENOSIDE F2” (INTELLIGENT SYNTHETIC BIOLOGY CENTER, priority 2015, published 2021)
